Source: patent publication US9176114B2, “Cell culture model for acquired chemoresistance of chronic myelogenous leukemia and related methods for identifying agents to overcome resistance” (CITY OF HOPE, priority 2007, dated 2015)
Structures can show the parent of a compound that is named as a salt.

Columns and labels:
SIRT1 promoter = SIRT1 promoter assay (luciferase reporter); assay type: cell-based, human; conditions: KCL-22 and K562 cells
Description: FeOfection reagent (GENOVIS) was used to transfect 0.18 μg reporter and 0.02 μg pmaxGFP each well per the manufacturer's instruction. Six hours after transfection, cells were treated with imatinib and harvested after another 30 hs. Luciferase activity was measured using Dual-Luciferase Assay System (Promega), and normalized to GFP reading in each lysate.

KCL-22 cells [1] = test: Resistance assay: relapse of KCL-22 cells in prolonged liquid culture (CML acquired resistance model); assay type: cell-based, human; conditions: for relapse of KCL-22 cells on imatinib (STI-571) in combination with the inhibitor: prolonged culture
Text: (§1) Cells were maintained in these cultures without changing medium.
Cells were maintained in these cultures without changing medium. Aliquots of cells were taken out at specified time points and cell numbers counted using a hematocytometer. Cell viability was accessed by trypan blue exclusion where necessary.

KU-812 xenograft = conditions: relapse after 48 to 60 days; cited from earlier work
CML mice [2] = conditions: P210 BCR-ABL BALB/c model; cited from earlier work
K562 cells [3] = test: Growth factor-induced transient resistance (serum-free medium, basic supplements, insulin); assay type: cell-based, human
Description: (A) Growth curves of K562 cells in serum medium, and serum-free medium supplied with basic supplements containing 5 μg/ml insulin and 5 μg/ml transferrin (basic) with or without 75 ng/ml EGF, 25 μg/ml HDL or both (EH). […] Relative survival of imatinib treated cells was calculated by comparison to no drug treatment. Pre-incubation for two days renders resistance. […] Since sirtinol is insoluble in SF medium, HDL 25 μg/ml was added to help dissolve the drug. (D) Effects of basic supplements in serum medium. […] Viable cells were counted one and three days after the treatment. […] (F) Effects of insulin in resistance.
Whether serum-free medium supplied with select growth factors provides a better culture environment for developing CML chemoresistance was determined. Serum-free (SF) medium with insulin, transferring, epidermal growth factor (EGF) and high density lipoprotein (HDL) was used. SF medium with the basic supplements (5 μg/ml insulin and 5 μg/ml transferring) was sufficient to support growth of both K562 cells (FIG. 13A) and KCL-22 cells. […] Sirtinol is able to overcome CML resistance in SF culture.
Transient resistance conferred by insulin and transferrin supplement is of interest as insulin receptor is overexpressed in about 90% primary CML cells. The key insulin downstream target phosphatidylinositol-3 kinase (PI3K) is required for BCR-ABL mediated transformation and inhibition of PI3K-Akt-mTor pathway has been explored to overcome CML chemoresistance. SIRT1 is a key gene for regulating insulin secretion and directly regulates Akt downstream target FOXO proteins through deacetylation. Therefore, the effect of insulin itself for transient resistance to imatinib and the response of sirtinol treatment were examined.

SIRT1 = SIRT1 protein expression by Western blot; assay type: cell-based, human
Description: (§2) SIRT1 expression was analyzed by Western blot using 1:5000 diluted rabbit monoclonal SIRT1 antibody (Epitomics). Controls used were GAPDH or actin as loading controls with rabbit anti-GAPDH (Trevigen) or anti-actin (Sigma) at 1:5000 dilution. GAPDH [>ref|NT—009759.15|Hs12—9916:6497433-6502281 Homo sapiens chromosome 12 genomic contig, reference assembly] primers used are as follows: […]
RNA was extracted with Trizol (Invitrogen), synthesized the first strand DNA with Superscript III kit (Invitrogen), and analyzed gene expression using SYBR GreenER qPCR SuperMix kit (Invitrogen). For Western blots, rabbit monoclonal anti-human SIRT1 (Epitomics), rabbit anti-mouse SIRT1 (Upstate Biotech), mouse monoclonal anti-c-ABL (BD Pharmingen), mouse monoclonal anti-Ku70 (Neomarker), rabbit polyclonal anti-acetylated p53 (Cell Signaling) and rabbit polyclonal anti-acetylated FOXO1 (Santa Cruz Biotech) were used. To analyze Ku70 acetylation, Ku70 was pulled down from total cell lysate with anti-Ku70 and protein A-agarose beads (Upstate Biotech) followed by acetylation detection with rabbit anti-acetyl lysine antibody (Cell Signaling).

[4] = tested on: SIRT1 and other sirtuin deacetylases; conditions: cited from earlier work
HIC1 = HIC1 expression / SIRT1 level after HDAC and DNMT inhibitors; assay type: cell-based, human; conditions: KCL-22 cells, alone or in combination
Text: Total cellular RNA with Trizol (Invitrogen) using a standard protocol. First strand DNA was synthesized and HIC1 expression by quantitative real-time RT-PCR using a kit with SYBR Green label (Invitrogen) as per the manufacture's instruction on a BioRad machine OPTICON. The following are the HIC1 primers (spanning introns), 5′-[…]-3′(exon 1a) and 5′-[…]-3′ (Exon 2). [>ref|NT—010718.15|Hs17—10875:1561637-1565694 Homo sapiens chromosome 17 genomic contig, reference assembly]
as §2

KCL-22 cells [5] = test: Analysis of reactive oxygen species (ROS) and DNA damage (γH2AX); assay type: cell-based, human; conditions: 24 h, in the presence or absence of imatinib
Description: ROS was analyzed using redox-sensitive fluorochrome 2′.7′-dichlorofluorescein diacetate (Sigma) as described previously (Koptyra et al. 2006). When coupled with the apoptosis analysis, cells were labeled with annexin V first and then 2′.7′-dichlorofluorescein diacetate.
Cells were pre-selected for four days in HAT medium to remove pre-existing HPRT mutations. The efficiency of HAT selection was confirmed by plating these cells on soft agar with 2.5 μg/ml 6-thioguanine, which produced zero colony. HAT-selected cells were then treated with 0.5 μM CPT for 1 hour, and then cultured for 10 days before used for soft agar clonogenic assay with 6-thioguanine selection. The rest of HAT-selected cells were cultured in medium without selection. The change of γH2AX was analyzed with γH2AX Assay Kit (Upstate Biotech).

Solubility = assay type: physicochemical
K562 cells [6] = test: Cell growth, apoptosis (annexin V) and cell cycle analysis; assay type: cell-based, human
Description: (§3) One half million cells per well were seeded in a 24-well plate and at 2 and 4 days after initiation of drug treatment, surviving cells were counted (A, B). […] The percentage of annexin V positive cells including early and late apoptotic cells was plotted underneath FACS charts.
(§4) Cell apoptosis was analyzed with annexin V kit (BD Pharminggen) as per the manufacturer's instruction.

KCL-22 cells [7] = test: as above; assay type: cell-based, human
Description: as §3, §4

Aurora A = test: Expression of Aurora kinases by Western blot in KCL-22M cells; assay type: cell-based, human; conditions: two days of drug treatment
SD1 cells = test: Resistance assay in BCR-ABL positive ALL cells; assay type: cell-based, human; conditions: 50 μM sirtinol alone or in combination with STI-571, prolonged culture
Description: as §1
The ability of sirtinol and imatinib to block resistance related to BCR-ABL mutations and non-mutants was determined in acute lymphocytic leukemia (ALL) cells.

CML mice [8] = test: Mouse bone marrow transduction/transplantation model of CML-like disease, drug treatment
AML CD34+ cells = test: Apoptosis of AML CD34+ cells; assay type: cell-based, human
[9] = Physiological indexes of normal BALB/c mice after 10 day treatment; assay type: in vivo; conditions: tenovin-6 alone or in combination with imatinib
CML CD34+ cells = test: Apoptosis and p53 acetylation in primary CML CD34+ cells; assay type: cell-based, human
Text: FIG. 32 illustrates that SIRT1 inhibition enhances apoptosis of human CML progenitor cells. (A) Inhibition of SIRT1 protein expression in CML and cord blood (CB) CD34+ cells by lentivirus-mediated expression of SIRT1 shRNA. […] (C) SIRT1 inhibition in CML CD34+ cells results in increased P53 acetylation. […] (F) SIRT1 expression in CB and AML CD34+ cells.

[10] = 1 μM TSA with all dosages of STI-571
[11] = 50 μM sirtinol with 1 μM STI-571
[12] = two days treatment, PI staining

SMILES: Cc1ccc(NC(=O)c2ccc(CN3CCN(C)CC3)cc2)cc1Nc1nccc(-c2cccnc2)n1 [STI-571, Imatinib mesylate]
- SIRT1 promoter activity (SIRT1 promoter): significantly inhibited SIRT1 promoter activity
- sensitivity of KCL-22 cells to treatment (KCL-22 cells [1]; 1 μM STI-571): insensitive
- fraction of mice relapsing on STI-571 (KU-812 xenograft): one third
- mice with prolonged survival on STI-571 (CML mice [2]): 80%
- sensitivity of K562 cells to STI-571 in SF medium (K562 cells [3]; 1 μM STI-571, two days pre-incubation in SF medium with basic supplements): as refractory as KCL-22 cells
- SIRT1 expression (SIRT1; KCL-22M cells): did not change SIRT1 expression
- SIRT1 protein levels (SIRT1; KCL-22 and K562 cells, imatinib 48 hours): decreased in a drug concentration-dependent manner

SMILES: CC(/C=C/C(=O)NO)=C\[C@@H](C)C(=O)c1ccc(N(C)C)cc1 [TSA, trichostatin A]
- sensitivity of SIRT1 to the inhibitor [4]: insensitive
- cell killing in combination with STI-571 (KCL-22 cells [1]; [10]): massive apoptosis and dramatic cell killing
- relapse on TSA plus STI-571 (KCL-22 cells [1]; [10]): After ten days, cells on all dosages of STI-571 relapsed
- toxicity on KCL-22 cells, inhibitor alone (KCL-22 cells [1]; TSA at 1 μM alone): little toxicity
- relapse of KCL-22 cells on imatinib (STI-571) in combination with the inhibitor (KCL-22 cells [1]): fails to block relapse
- reactivation of HIC1 expression / reduction of SIRT1 level (HIC1): could not reactivate HIC1 expression or reduce SIRT1 level
- growth of KCL-22M cells (KCL-22M cells; 1 μM inhibitor): no effect on cell growth
- γH2AX expression (KCL-22 cells [5]): elicited robust γH2AX induction

SMILES: CC(NC(=O)c1ccccc1/N=C/c1c(O)ccc2ccccc12)c1ccccc1 (centres unmarked) [sirtinol]
- recurrence on nilotinib or dasatinib in combination with SIRT1 inhibitor (KCL-22 cells [1]): effectively blocked the recurrence
- relapse on 1 μM Dasatinib in combination with sirtinol (KCL-22 cells [1]): blocked relapse
- relapse on […] Nilotinib in combination with SIRT1 inhibitor (KCL-22 cells [1]): blocked relapse
- relapse on sirtinol alone (KCL-22 cells [1]; 50 μM sirtinol alone): resulted in relapse after two weeks
- relapse of KCL-22 cells on imatinib (STI-571) in combination with the inhibitor (KCL-22 cells [1]): blocks relapse
- relapse of KCL-22 cells on imatinib (STI-571) in combination with the inhibitor (KCL-22 cells [1]; listed as Sirtinol): blocked relapse at all dosages of STI-571
- effective concentration in vivo (limited by solubility) (Solubility): not obtainable in vivo
- solubility in SF medium (Solubility; serum-free medium): insoluble
- transient resistance to 1 μM STI-571 from basic supplements in serum medium (K562 cells [3]; 50 μM sirtinol): abolished this transient resistance
- transient resistance to 1 μM STI-571 from insulin (K562 cells [3]; sirtinol alone or in combination with STI-571): abolished this transient resistance
- cell killing in SF culture (K562 cells [3]; sirtinol alone or with STI-571, K562 and KCL-22 cells, no relapse): rapid killing
- cell death of KCL-22M cells, combination (KCL-22M cells; 50 μM sirtinol with 1 μM AZA): induced partial cell death
- growth of KCL-22M cells, combination (KCL-22M cells; sirtinol (50 μM) with STI-571 ([…])): able to inhibit cell growth
- cell growth (K562 cells [6]; 50 μM sirtinol alone): inhibited the growth
- growth inhibition, combination (K562 cells [6]; [11]): synergized their inhibitory effects
- apoptosis (annexin V) (K562 cells [6]; sirtinol alone): significantly induced annexin V positive apoptotic cells
- apoptosis (annexin V), combination (K562 cells [6]; sirtinol combined with STI-571): induced more dramatic apoptosis than each individual drug
- cell cycle (K562 cells [6]; [12]): rapidly increased sub-G1 and apoptotic fraction
- cell growth (KCL-22 cells [7]; 50 μM sirtinol alone): inhibited the growth
- growth inhibition, combination (KCL-22 cells [7]; [11]): synergized their inhibitory effects
- apoptosis (annexin V) (KCL-22 cells [7]; sirtinol alone): significantly induced annexin V positive apoptotic cells
- apoptosis (annexin V), combination (KCL-22 cells [7]; sirtinol combined with STI-571): induced more dramatic apoptosis than each individual drug
- cell cycle (KCL-22 cells [7]; [12]): reducing S/G2 and increasing sub-G1 population
- Aurora A protein in KCL-22M cells (Aurora A): degraded
- effect of sirtinol on SD1 cells (SD1 cells): eliminated these cells

SMILES: CN(C)CCCCC(=O)Nc1ccc(NC(=S)NC(=O)c2ccc(C(C)(C)C)cc2)cc1 [tenovin-6]
- CML mouse survival (CML mice [8]; 50 mg/kg/day, 10 days from day 10 after transplantation): significantly extended CML mouse survival
- CML mouse survival, combination (CML mice [8]; tenovin-6 with imatinib): longest survivors
- lowest dose that blocked relapse on imatinib (KCL-22 cells [1]): 1 µM
- recurrence on nilotinib or dasatinib in combination with SIRT1 inhibitor (KCL-22 cells [1]): effectively blocked the recurrence
- relapse on […] Nilotinib in combination with SIRT1 inhibitor (KCL-22 cells [1]): blocked relapse
- relapse on 1 μM Dasatinib in combination with tenovin-6 (KCL-22 cells [1]; 1 μM tenovin-6): delayed the relapse
- relapse on 1 μM Dasatinib in combination with tenovin-6 (KCL-22 cells [1]; 5 μM tenovin-6): blocked relapse
- relapse of KCL-22 cells on imatinib (STI-571) in combination with the inhibitor (KCL-22 cells [1]): blocks relapse
- water solubility (Solubility): water soluble
- apoptosis of AML CD34+ cells (AML CD34+ cells): induced apoptosis
- toxicity [9]: No noticeable toxicity
- P53 acetylation in CML CD34+ cells (CML CD34+ cells): enhanced P53 acetylation
- apoptosis of primitive CML CD34+CD38- progenitors incl. quiescent fraction (CML CD34+ cells): increased apoptosis
